Data as given in patent US11203600B2 (Denali Therapeutics Inc., priority 2017, dated 2021).

Target: GST-hRIPK1 (8-327) (Homo sapiens (Human), UniProt Q13546)
Experiment: Fluorescent Polarization Binding (FP Binding) assay, RIPK1
Details: 10 nM GST-hRIPK1 (8-327), 5 nM fluorescent-labeled ligand, RT, 30 min, mean of at least two independent experiments
In short: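 Compound displacement of 5 nM labelled ligand from 10 nM GST-hRIPK1 (8-327) was read as FP (531/595 nm) after 30 min at RT. Buffer: HEPES pH 7.5, NaCl, MgCl2, CHAPS, DTT, Pluronic; 1% DMSO final. IC50s were averaged over at least two independent runs.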

Sequence of GST-hRIPK1 (8-327) (Q13546 8-327): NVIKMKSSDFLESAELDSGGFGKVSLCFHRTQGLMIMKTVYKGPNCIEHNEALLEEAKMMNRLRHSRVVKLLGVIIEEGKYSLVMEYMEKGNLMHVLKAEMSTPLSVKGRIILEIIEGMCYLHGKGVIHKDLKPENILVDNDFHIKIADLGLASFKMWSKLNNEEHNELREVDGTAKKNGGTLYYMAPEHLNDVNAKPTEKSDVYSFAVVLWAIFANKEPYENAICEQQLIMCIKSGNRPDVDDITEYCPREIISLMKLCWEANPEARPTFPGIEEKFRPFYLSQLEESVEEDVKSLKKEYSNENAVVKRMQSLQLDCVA

Compound | IC50
CC(C)(Cl)C(=O)N1CCOc2c(C#N)cncc2C1 [Example 158, 4-(2-chloro-2-methyl-propanoyl)-3,5-dihydro-2H-pyrido[3,4-f][1,4]oxazepine-9-carbonitrile] | 0.1 to 100 nM
N#Cc1cnc(N2CCC(F)(C(=O)N3CCOc4c(F)cncc4C3)CC2)nc1 [Example 159, 2-[4-fluoro-4-(9-fluoro-3,5-dihydro-2H-pyrido[3,4-f][1,4]oxazepine-4-carbonyl)-1-piperidyl]pyrimidine-5-carbonitrile] | 100 to 1000 nM
N#Cc1ccnc(N2CCC(F)(C(=O)N3CCOc4c(F)cncc4C3)CC2)n1 [Example 160, 2-[4-fluoro-4-(9-fluoro-3,5-dihydro-2H-pyrido[3,4-f][1,4]oxazepine-4-carbonyl)-1-piperidyl]pyrimidine-4-carbonitrile] | 100 to 1000 nM
N#Cc1cncc2c1OCCN(C(=O)C1(F)CCN(c3ncc(F)cn3)CC1)C2 [Example 161, 4-[4-fluoro-1-(5-fluoropyrimidin-2-yl)piperidine-4-carbonyl]-3,5-dihydro-2H-pyrido[3,4-f][1,4]oxazepine-9-carbonitrile] | 0.1 to 100 nM
Cc1ccnc(N2CCC(F)(C(=O)N3CCOc4c(C#N)cncc4C3)CC2)n1 [Example 162, 4-[4-fluoro-1-(4-methylpyrimidin-2-yl)piperidine-4-carbonyl]-3,5-dihydro-2H-pyrido[3,4-f][1,4]oxazepine-9-carbonitrile] | 100 to 1000 nM
Cc1cnc(N2CCC(F)(C(=O)N3CCOc4c(C#N)cncc4C3)CC2)nc1 [Example 163, 4-[4-fluoro-1-(5-methylpyrimidin-2-yl)piperidine-4-carbonyl]-3,5-dihydro-2H-pyrido[3,4-f][1,4]oxazepine-9-carbonitrile] | 100 to 1000 nM
N#Cc1cncc2c1OCCN(C(=O)C1(F)CCN(c3ncc(Cl)cn3)CC1)C2 [Example 164, 4-[1-(5-chloropyrimidin-2-yl)-4-fluoro-piperidine-4-carbonyl]-3,5-dihydro-2H-pyrido[3,4-f][1,4]oxazepine-9-carbonitrile] | 0.1 to 100 nM
N#Cc1cncc2c1OCCN(C(=O)C1(F)CCN(c3ncc4c(n3)COC4)CC1)C2 [Example 165, 4-[1-(5,7-dihydrofuro[3,4-d]pyrimidin-2-yl)-4-fluoro-piperidine-4-carbonyl]-3,5-dihydro-2H-pyrido[3,4-f][1,4]oxazepine-9-carbonitrile] | 100 to 1000 nM
N#Cc1cncc2c1OCCN(C(=O)C1(F)CCN(c3nccc4ncnn34)CC1)C2 [Example 166, 4-[4-fluoro-1-([1,2,4]triazolo[1,5-c]pyrimidin-5-yl)piperidine-4-carbonyl]-3,5-dihydro-2H-pyrido[3,4-f][1,4]oxazepine-9-carbonitrile] | 100 to 1000 nM
N#Cc1cncc2c1OCCN(C(=O)C1(F)CCN(c3nccc(C(F)(F)F)n3)CC1)C2 [Example 167, 4-[4-fluoro-1-[4-(trifluoromethyl)pyrimidin-2-yl]piperidine-4-carbonyl]-3,5-dihydro-2H-pyrido[3,4-f][1,4]oxazepine-9-carbonitrile] | 100 to 1000 nM
Cc1cc(C(F)(F)F)nc(N2CCC(F)(C(=O)N3CCOc4c(C#N)cncc4C3)CC2)n1 [Example 168, 4-[4-fluoro-1-[4-methyl-6-(trifluoromethyl)pyrimidin-2-yl]piperidine-4-carbonyl]-3,5-dihydro-2H-pyrido[3,4-f][1,4]oxazepine-9-carbonitrile] | 100 to 1000 nM
Cn1cnc2cnc(N3CCC(F)(C(=O)N4CCOc5c(C#N)cncc5C4)CC3)nc21 [Example 169, 4-[4-fluoro-1-(9-methylpurin-2-yl)piperidine-4-carbonyl]-3,5-dihydro-2H-pyrido[3,4-f][1,4]oxazepine-9-carbonitrile] | 100 to 1000 nM
N#Cc1cncc2c1OCCN(C(=O)C1(F)CCN(c3ncc(C(F)(F)F)cn3)CC1)C2 [Example 170, 4-[4-fluoro-1-[5-(trifluoromethyl)pyrimidin-2-yl]piperidine-4-carbonyl]-3,5-dihydro-2H-pyrido[3,4-f][1,4]oxazepine-9-carbonitrile] | 100 to 1000 nM
N#Cc1cncc2c1OCCN(C(=O)C1(F)CCN(c3ccnc(C(F)(F)F)n3)CC1)C2 [Example 171] | 100 to 1000 nM
COc1nccc(N2CCC(F)(C(=O)N3CCOc4c(C#N)cncc4C3)CC2)n1 [Example 172, 4-[4-fluoro-1-(2-methoxypyrimidin-4-yl)piperidine-4-carbonyl]-3,5-dihydro-2H-pyrido[3,4-f][1,4]oxazepine-9-carbonitrile] | 100 to 1000 nM
Cc1ocnc1C(=O)N1CCC(F)(C(=O)N2CCOc3c(C#N)cncc3C2)CC1 [Example 173, 4-[4-fluoro-1-(5-methyloxazole-4-carbonyl)piperidine-4-carbonyl]-3,5-dihydro-2H-pyrido[3,4-f][1,4]oxazepine-9-carbonitrile] | 100 to 1000 nM
CC(C)COC(=O)N1CCC(F)(C(=O)N2CCOc3c(C#N)cncc3C2)CC1 [Example 174, isobutyl 4-(9-cyano-3,5-dihydro-2H-pyrido[3,4-f][1,4]oxazepine-4-carbonyl)-4-fluoro-piperidine-1-carboxylate] | > 1000 nM

Compound | IC50
CC(C)(C)C(=O)N1CCOc2c(C#N)cncc2C1 [Example 175, 4-(2,2-dimethylpropanoyl)-3,5-dihydro-2H-pyrido[3,4-f][1,4]oxazepine-9-carbonitrile] | 0.1 to 100 nM
N#Cc1cncc2c1OCCN(C(=O)C1(F)CCN(c3ncc(F)cn3)C1)C2 (stereo not shown) [Example 176, 4-[3-fluoro-1-(5-fluoropyrimidin-2-yl)pyrrolidine-3-carbonyl]-3,5-dihydro-2H-pyrido[3,4-f][1,4]oxazepine-9-carbonitrile] | > 1000 nM
N#Cc1cncc2c1OCCN(C(=O)C1(Cl)CCN(c3ncc(F)cn3)CC1)C2 [Example 177, 4-[4-chloro-1-(5-fluoropyrimidin-2-yl)piperidine-4-carbonyl]-3,5-dihydro-2H-pyrido[3,4-f][1,4]oxazepine-9-carbonitrile] | 0.1 to 100 nM
CCOc1nc(N2CCC(F)(C(=O)N3CCOc4c(C#N)cncc4C3)CC2)ncc1F [Example 178, 4-[1-(4-ethoxy-5-fluoro-pyrimidin-2-yl)-4-fluoro-piperidine-4-carbonyl]-3,5-dihydro-2H-pyrido[3,4-f][1,4]oxazepine-9-carbonitrile] | 0.1 to 100 nM
N#Cc1cncc2c1OCCN(C(=O)C1(F)CCN(c3ccnc4nccn34)CC1)C2 [Example 180] | 100 to 1000 nM
CC(C)(CSc1ncc(F)cn1)C(=O)N1CCOc2c(C#N)cncc2C1 [Example 181] | > 1000 nM
N#Cc1cncc2c1OCCN(C(=O)C1(C#N)CCN(c3ncc(F)cn3)CC1)C2 [Example 182, 4-[4-cyano-1-(5-fluoropyrimidin-2-yl)piperidine-4-carbonyl]-3,5-dihydro-2H-pyrido[3,4-f][1,4]oxazepine-9-carbonitrile] | 100 to 1000 nM
N#Cc1cccc2c1OCCN(C(=O)C1CCN(c3ncc(F)cn3)CC1)C2 [Example 183, 4-[1-(5-fluoropyrimidin-2-yl)piperidine-4-carbonyl]-3,5-dihydro-2H-1,4-benzoxazepine-9-carbonitrile] | 0.1 to 100 nM
COC1(C(=O)N2CCOc3c(C#N)cncc3C2)CCN(c2ncc(F)cn2)CC1 [Example 185, 4-[1-(5-fluoropyrimidin-2-yl)-4-methoxy-piperidine-4-carbonyl]-3,5-dihydro-2H-pyrido[3,4-f][1,4]oxazepine-9-carbonitrile] | 0.1 to 100 nM
COc1cnc(Cl)nc1N1CCC(F)(C(=O)N2CCOc3c(C#N)cncc3C2)CC1 [Example 186, 4-[1-(2-chloro-5-methoxy-pyrimidin-4-yl)-4-fluoro-piperidine-4-carbonyl]-3,5-dihydro-2H-pyrido[3,4-f][1,4]oxazepine-9-carbonitrile] | > 1000 nM
CC1CN(c2ncc(F)cn2)CCC1C(=O)N1CCOc2c(C#N)cncc2C1 (stereo not shown) [Example 187, 4-[1-(5-fluoropyrimidin-2-yl)-3-methyl-piperidine-4-carbonyl]-3,5-dihydro-2H-pyrido[3,4-f][1,4]oxazepine-9-carbonitrile] | 0.1 to 100 nM
N#Cc1cncc2c1OCCN(C(=O)C1(F)CCN(c3ccc(F)cn3)CC1)C2 [Example 188, 4-[4-fluoro-1-(5-fluoro-2-pyridyl)piperidine-4-carbonyl]-3,5-dihydro-2H-pyrido[3,4-f][1,4]oxazepine-9-carbonitrile] | 0.1 to 100 nM
N#Cc1cncc2c1OCCN(C(=O)C1(F)CCN(c3ncc(C(F)F)cn3)CC1)C2 [Example 189, 4-[1-[5-(difluoromethyl)pyrimidin-2-yl]-4-fluoro-piperidine-4-carbonyl]-3,5-dihydro-2H-pyrido[3,4-f][1,4]oxazepine-9-carbonitrile] | 100 to 1000 nM
COC1(C(=O)N2CCOc3c(C#N)cncc3C2)CCN(c2ccc(F)cn2)CC1 [Example 190, 4-[1-(5-fluoro-2-pyridyl)-4-methoxy-piperidine-4-carbonyl]-3,5-dihydro-2H-pyrido[3,4-f][1,4]oxazepine-9-carbonitrile] | 100 to 1000 nM
COc1nc(N2CCC(F)(C(=O)N3CCOc4c(C#N)cncc4C3)CC2)ncc1F [Example 191, 4-[4-fluoro-1-(5-fluoro-4-methoxy-pyrimidin-2-yl)piperidine-4-carbonyl]-3,5-dihydro-2H-pyrido[3,4-f][1,4]oxazepine-9-carbonitrile] | 0.1 to 100 nM
N#Cc1cncc2c1OCCN(C(=O)C1(F)CCN(c3ncc(F)cc3F)CC1)C2 [Example 192, 4-[1-(3,5-difluoro-2-pyridyl)-4-fluoro-piperidine-4-carbonyl]-3,5-dihydro-2H-pyrido[3,4-f][1,4]oxazepine-9-carbonitrile] | 0.1 to 100 nM
N#Cc1cncc2c1OCCN(C(=O)C1(F)CCN(c3cnc(F)c(F)c3)CC1)C2 [Example 193, 4-[1-(5,6-difluoro-3-pyridyl)-4-fluoro-piperidine-4-carbonyl]-3,5-dihydro-2H-pyrido[3,4-f][1,4]oxazepine-9-carbonitrile] | > 1000 nM
